# Test results reported in the kinase profiling compilation of Christmann-Franck et al. (2016).
# Tests used:
# Experiment in all cases: radiometric filter-binding kinase assay, Kinase HotSpot
# Conditions in all cases: compound 0.5 µM; ATP 10 µM
# ABL1 (human) = ABL1 (human) (UniProt P00519)
# AURKC (human) = AURKC (human) (UniProt Q9UQB9)
# BLK (human) = BLK (human) (UniProt P51451)
# BMX (human) = BMX (human) (UniProt P51813)
# BTK (human) = BTK (human) (UniProt Q06187)
# CDK1 CCNB1 (human) = CDK1 CCNB1 (human) (UniProt P06493+P14635)
# CDK3 CCNE1 (human) = CDK3 CCNE1 (human) (UniProt Q00526+P24864)
# Chain of CDK3 CCNE1 (human) (P24864 whole entry, looked up): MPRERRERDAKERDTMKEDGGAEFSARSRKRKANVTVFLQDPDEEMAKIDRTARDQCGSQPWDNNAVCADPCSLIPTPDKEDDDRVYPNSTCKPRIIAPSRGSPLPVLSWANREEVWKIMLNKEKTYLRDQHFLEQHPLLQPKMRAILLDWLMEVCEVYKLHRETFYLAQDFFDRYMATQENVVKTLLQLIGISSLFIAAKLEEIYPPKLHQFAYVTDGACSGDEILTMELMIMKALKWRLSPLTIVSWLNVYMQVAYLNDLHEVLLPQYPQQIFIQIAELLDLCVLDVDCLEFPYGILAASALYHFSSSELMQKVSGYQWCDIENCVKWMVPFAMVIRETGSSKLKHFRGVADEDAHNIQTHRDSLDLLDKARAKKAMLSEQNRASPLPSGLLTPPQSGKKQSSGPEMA
# Chain of CDK3 CCNE1 (human) (Q00526 whole entry, looked up): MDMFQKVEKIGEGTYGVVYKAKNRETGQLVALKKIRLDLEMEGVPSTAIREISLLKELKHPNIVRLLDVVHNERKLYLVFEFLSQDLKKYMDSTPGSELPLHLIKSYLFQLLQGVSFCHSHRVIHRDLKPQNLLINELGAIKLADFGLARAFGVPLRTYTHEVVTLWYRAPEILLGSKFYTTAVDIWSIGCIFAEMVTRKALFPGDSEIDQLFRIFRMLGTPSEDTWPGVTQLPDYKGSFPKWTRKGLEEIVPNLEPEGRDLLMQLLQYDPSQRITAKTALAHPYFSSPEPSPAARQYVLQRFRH
# CDK7 CCNH MNAT1 (human) = CDK7 CCNH MNAT1 (human) (UniProt P50613+P51948+P51946)
# CSNK1G2 (human) = CSNK1G2 (human) (UniProt P78368)
# CSNK1G3 (human) = CSNK1G3 (human) (UniProt Q9Y6M4)
# DMPK (human) = DMPK (human) (UniProt Q09013)
# DYRK1A (human) = DYRK1A (human) (UniProt Q13627)
# DYRK4 (human) = DYRK4 (human) (UniProt Q9NR20)
# EPHA1 (human) = EPHA1 (human) (UniProt P21709)
# FES (human) = FES (human) (UniProt P07332)
# FLT1 (human) = FLT1 (human) (UniProt P17948)
# Chain of FLT1 (human) (P17948 whole entry, looked up): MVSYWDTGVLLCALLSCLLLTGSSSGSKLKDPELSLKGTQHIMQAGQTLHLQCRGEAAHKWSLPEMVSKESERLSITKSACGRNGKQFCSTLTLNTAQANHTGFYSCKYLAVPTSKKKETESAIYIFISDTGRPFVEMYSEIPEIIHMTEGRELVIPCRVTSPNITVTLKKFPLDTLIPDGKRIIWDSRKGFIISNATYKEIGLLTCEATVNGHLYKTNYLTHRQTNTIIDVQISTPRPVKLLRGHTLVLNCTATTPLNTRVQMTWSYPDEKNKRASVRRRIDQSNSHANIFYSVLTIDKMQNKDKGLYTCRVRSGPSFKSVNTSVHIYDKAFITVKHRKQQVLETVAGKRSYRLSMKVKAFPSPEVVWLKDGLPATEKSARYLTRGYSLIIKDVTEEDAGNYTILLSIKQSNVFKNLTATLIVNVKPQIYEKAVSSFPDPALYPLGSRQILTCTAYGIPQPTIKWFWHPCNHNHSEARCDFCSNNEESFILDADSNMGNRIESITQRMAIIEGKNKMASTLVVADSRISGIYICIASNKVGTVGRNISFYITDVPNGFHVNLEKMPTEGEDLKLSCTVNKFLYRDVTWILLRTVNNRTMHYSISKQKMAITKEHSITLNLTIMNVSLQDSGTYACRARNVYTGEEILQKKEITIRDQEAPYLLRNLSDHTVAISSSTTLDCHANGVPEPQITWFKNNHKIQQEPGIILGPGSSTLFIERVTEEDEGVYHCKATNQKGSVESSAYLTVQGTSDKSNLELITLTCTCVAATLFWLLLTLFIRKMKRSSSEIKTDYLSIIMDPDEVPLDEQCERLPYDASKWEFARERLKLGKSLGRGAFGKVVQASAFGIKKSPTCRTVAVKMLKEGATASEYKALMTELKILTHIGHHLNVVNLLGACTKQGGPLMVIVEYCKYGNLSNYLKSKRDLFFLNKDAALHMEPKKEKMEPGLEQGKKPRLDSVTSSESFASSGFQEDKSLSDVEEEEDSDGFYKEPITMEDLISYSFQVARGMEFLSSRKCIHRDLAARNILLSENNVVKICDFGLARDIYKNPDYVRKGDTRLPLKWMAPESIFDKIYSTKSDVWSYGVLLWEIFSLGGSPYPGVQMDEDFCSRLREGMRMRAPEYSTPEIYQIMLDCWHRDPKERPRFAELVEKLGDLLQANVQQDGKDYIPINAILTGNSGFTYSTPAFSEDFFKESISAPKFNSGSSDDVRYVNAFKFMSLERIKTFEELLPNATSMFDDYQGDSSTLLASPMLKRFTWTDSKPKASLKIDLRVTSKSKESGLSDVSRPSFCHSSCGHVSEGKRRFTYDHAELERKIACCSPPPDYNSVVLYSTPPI
# GRK5 (human) = GRK5 (human) (UniProt P34947)
# GRK6 (human) = GRK6 (human) (UniProt P43250)
# IGF1R (human) = IGF1R (human) (UniProt P08069)
# INSRR (human) = INSRR (human) (UniProt P14616)
# KDR (human) = KDR (human) (UniProt P35968)
# LRRK2 (human) = LRRK2 (human) (UniProt Q5S007)
# LTK (human) = LTK (human) (UniProt P29376)
# MAP3K5 (human) = MAP3K5 (human) (UniProt Q99683)
# MAP3K9 (human) = MAP3K9 (human) (UniProt P80192)
# MAP4K4 (human) = MAP4K4 (human) (UniProt O95819)
# MAPK8 (human) = MAPK8 (human) (UniProt P45983)
# MST4 (human) = MST4 (human) (UniProt Q9P289)
# NEK3 (human) = NEK3 (human) (UniProt P51956)
# NEK4 (human) = NEK4 (human) (UniProt P51957)
# Chain of NEK4 (human) (P51957 whole entry, looked up): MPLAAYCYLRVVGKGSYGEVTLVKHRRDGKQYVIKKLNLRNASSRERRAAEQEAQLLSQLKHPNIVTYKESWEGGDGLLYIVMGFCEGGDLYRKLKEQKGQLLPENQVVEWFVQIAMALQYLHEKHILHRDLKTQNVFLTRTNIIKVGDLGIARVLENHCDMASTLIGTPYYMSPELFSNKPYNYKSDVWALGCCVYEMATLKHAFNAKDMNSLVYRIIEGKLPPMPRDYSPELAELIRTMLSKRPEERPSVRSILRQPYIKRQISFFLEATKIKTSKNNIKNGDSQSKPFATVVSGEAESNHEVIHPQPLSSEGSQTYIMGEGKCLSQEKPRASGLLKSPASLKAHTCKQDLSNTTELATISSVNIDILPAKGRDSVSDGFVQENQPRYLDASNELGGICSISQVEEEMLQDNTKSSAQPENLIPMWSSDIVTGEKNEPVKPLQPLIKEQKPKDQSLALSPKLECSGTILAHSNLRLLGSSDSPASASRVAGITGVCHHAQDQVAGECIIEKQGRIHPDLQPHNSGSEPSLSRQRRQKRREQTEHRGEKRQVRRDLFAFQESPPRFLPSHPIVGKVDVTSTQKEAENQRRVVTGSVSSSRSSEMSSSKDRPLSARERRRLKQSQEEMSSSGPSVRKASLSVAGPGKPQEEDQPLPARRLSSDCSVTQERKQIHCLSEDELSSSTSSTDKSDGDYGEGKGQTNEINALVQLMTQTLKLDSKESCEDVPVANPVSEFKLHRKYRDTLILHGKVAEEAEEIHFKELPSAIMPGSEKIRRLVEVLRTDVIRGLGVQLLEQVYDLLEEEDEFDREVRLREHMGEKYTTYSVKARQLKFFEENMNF
# PAK6 (human) = PAK6 (human) (UniProt Q9NQU5)
# PIM2 (human) = PIM2 (human) (UniProt Q9P1W9)
# PLK2 (human) = PLK2 (human) (UniProt Q9NYY3)
# PRKCI (human) = PRKCI (human) (UniProt P41743)
# Chain of PRKCI (human) (P41743 whole entry, looked up): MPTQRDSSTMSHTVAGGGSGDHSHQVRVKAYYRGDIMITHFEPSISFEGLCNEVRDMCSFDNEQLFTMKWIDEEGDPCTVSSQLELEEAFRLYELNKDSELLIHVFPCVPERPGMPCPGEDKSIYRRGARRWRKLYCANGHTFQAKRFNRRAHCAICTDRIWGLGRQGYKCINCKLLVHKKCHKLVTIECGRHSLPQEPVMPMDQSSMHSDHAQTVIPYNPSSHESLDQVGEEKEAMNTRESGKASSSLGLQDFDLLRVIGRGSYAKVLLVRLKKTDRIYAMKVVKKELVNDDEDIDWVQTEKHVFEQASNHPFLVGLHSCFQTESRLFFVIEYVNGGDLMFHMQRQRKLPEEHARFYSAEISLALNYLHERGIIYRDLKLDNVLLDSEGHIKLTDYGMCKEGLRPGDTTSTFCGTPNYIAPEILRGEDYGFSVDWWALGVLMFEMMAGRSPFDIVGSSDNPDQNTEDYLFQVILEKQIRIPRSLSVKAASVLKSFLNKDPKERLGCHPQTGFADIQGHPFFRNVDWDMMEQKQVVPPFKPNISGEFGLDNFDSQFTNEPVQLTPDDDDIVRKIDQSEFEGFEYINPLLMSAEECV
# RAF1 (human) = RAF1 (human) (UniProt P04049)
# RIPK2 (human) = RIPK2 (human) (UniProt O43353)
# ROS1 (human) = ROS1 (human) (UniProt P08922)
# RPS6KB1 (human) = RPS6KB1 (human) (UniProt P23443)
# Chain of RPS6KB1 (human) (P23443 whole entry, looked up): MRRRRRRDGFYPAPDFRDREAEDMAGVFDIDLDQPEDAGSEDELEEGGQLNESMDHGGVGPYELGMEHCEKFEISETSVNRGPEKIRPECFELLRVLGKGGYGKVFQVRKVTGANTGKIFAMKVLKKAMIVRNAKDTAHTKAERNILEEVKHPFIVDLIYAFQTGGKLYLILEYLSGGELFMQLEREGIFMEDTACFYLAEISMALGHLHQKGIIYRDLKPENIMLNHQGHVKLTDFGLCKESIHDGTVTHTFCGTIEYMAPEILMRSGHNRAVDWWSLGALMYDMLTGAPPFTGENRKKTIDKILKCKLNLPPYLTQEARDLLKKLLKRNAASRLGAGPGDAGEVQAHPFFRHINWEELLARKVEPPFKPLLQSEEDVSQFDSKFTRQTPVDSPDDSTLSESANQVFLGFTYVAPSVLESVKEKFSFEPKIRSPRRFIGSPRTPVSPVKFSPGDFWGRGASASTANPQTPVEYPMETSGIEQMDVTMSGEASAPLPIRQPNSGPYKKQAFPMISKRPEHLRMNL
# SRPK1 (human) = SRPK1 (human) (UniProt Q96SB4)
# STK10 (human) = STK10 (human) (UniProt O94804)
# Chain of STK10 (human) (O94804 whole entry, looked up): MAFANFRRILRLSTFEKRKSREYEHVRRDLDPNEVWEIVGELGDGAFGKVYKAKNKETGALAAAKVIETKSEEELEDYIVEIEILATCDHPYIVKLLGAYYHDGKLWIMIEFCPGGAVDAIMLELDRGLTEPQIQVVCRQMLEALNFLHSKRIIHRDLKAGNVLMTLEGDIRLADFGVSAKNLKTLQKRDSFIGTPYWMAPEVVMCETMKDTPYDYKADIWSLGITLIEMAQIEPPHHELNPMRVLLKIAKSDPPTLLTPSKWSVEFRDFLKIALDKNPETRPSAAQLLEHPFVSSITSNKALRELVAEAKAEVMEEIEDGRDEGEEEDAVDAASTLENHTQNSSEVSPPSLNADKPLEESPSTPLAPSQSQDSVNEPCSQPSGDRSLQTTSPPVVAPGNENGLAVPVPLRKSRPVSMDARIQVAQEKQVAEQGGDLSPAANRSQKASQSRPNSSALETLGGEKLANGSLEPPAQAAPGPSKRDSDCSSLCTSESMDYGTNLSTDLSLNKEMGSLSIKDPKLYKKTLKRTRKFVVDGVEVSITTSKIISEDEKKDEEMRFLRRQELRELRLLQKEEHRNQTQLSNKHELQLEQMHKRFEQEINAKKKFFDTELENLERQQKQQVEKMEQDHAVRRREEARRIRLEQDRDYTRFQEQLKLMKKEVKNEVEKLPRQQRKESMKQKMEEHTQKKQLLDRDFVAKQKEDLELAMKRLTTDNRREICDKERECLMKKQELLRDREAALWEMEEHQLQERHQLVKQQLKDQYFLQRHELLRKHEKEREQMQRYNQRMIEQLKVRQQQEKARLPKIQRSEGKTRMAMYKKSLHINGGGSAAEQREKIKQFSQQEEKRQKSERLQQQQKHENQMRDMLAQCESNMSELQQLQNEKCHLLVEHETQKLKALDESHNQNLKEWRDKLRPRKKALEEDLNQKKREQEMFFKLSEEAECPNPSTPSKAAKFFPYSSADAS
# TAOK3 (human) = TAOK3 (human) (UniProt Q9H2K8)
# TSSK1B (human) = TSSK1B (human) (UniProt Q9BXA7)
structure (smiles),measurement,setting,value
Nc1cccc(-c2cc3c(Oc4cccc(O)c4)ncnc3[nH]2)c1,residual activity,ABL1 (human),5.5%
same,residual activity,AURKC (human),77.7%
same,residual activity,BLK (human),38.1%
same,residual activity,BMX (human),24.3%
same,residual activity,BTK (human),33.6%
same,residual activity,CDK1 CCNB1 (human),98.9%
same,residual activity,CDK3 CCNE1 (human),82.3%
same,residual activity,CDK7 CCNH MNAT1 (human),94.2%
same,residual activity,CSNK1G2 (human),84.9%
same,residual activity,CSNK1G3 (human),92.6%
same,residual activity,DMPK (human),95.2%
same,residual activity,DYRK1A (human),103%
same,residual activity,DYRK4 (human),101%
same,residual activity,EPHA1 (human),31.2%
same,residual activity,FES (human),73.8%
same,residual activity,FLT1 (human),8.56%
same,residual activity,GRK5 (human),128%
same,residual activity,GRK6 (human),98%
same,residual activity,IGF1R (human),99.5%
same,residual activity,INSRR (human),96.3%
same,residual activity,KDR (human),6.7%
same,residual activity,LRRK2 (human),93.4%
same,residual activity,LTK (human),16.8%
same,residual activity,MAP3K5 (human),94.9%
same,residual activity,MAP3K9 (human),16.2%
same,residual activity,MAP4K4 (human),12.5%
same,residual activity,MAPK8 (human),94.4%
same,residual activity,MST4 (human),83.8%
same,residual activity,NEK3 (human),57.5%
same,residual activity,NEK4 (human),91.4%
same,residual activity,PAK6 (human),109%
same,residual activity,PIM2 (human),108%
same,residual activity,PLK2 (human),106%
same,residual activity,PRKCI (human),84.6%
same,residual activity,RAF1 (human),85.9%
same,residual activity,RIPK2 (human),30.5%
same,residual activity,ROS1 (human),39.7%
same,residual activity,RPS6KB1 (human),95.3%
same,residual activity,SRPK1 (human),107%
same,residual activity,STK10 (human),45.8%
same,residual activity,TAOK3 (human),93.5%
same,residual activity,TSSK1B (human),91.1%
CO[C@H]1CC2CC[C@@H](C)[C@@](O)(O2)C(=O)C(=O)N2CCCC[C@H]2C(=O)OC([C@H](C)C[C@@H]2CC[C@@H](O)[C@H](OC)C2)CC(=O)[C@H](C)/C=C(\C)[C@@H](O)[C@@H](OC)C(=O)[C@H](C)C[C@H](C)/C=C/C=C/C=C/1C (stereo partly specified),residual activity,ABL1 (human),103%
same,residual activity,AURKC (human),95.6%
same,residual activity,BLK (human),94.8%
same,residual activity,BMX (human),96.6%
same,residual activity,BTK (human),101%
same,residual activity,CDK1 CCNB1 (human),103%
same,residual activity,CDK3 CCNE1 (human),102%
same,residual activity,CDK7 CCNH MNAT1 (human),98.2%
same,residual activity,CSNK1G2 (human),94.8%
same,residual activity,CSNK1G3 (human),108%
same,residual activity,DMPK (human),109%
same,residual activity,DYRK1A (human),94.3%
same,residual activity,DYRK4 (human),99.8%
same,residual activity,EPHA1 (human),99.5%
same,residual activity,FES (human),108%
same,residual activity,FLT1 (human),97.7%
same,residual activity,GRK5 (human),98.7%
same,residual activity,GRK6 (human),103%
same,residual activity,IGF1R (human),112%
same,residual activity,INSRR (human),102%
same,residual activity,KDR (human),98.1%
same,residual activity,LRRK2 (human),98.7%
same,residual activity,LTK (human),107%
same,residual activity,MAP3K5 (human),107%
same,residual activity,MAP3K9 (human),87.3%
same,residual activity,MAP4K4 (human),87.7%
same,residual activity,MAPK8 (human),100%
same,residual activity,MST4 (human),113%
same,residual activity,NEK3 (human),99%
same,residual activity,NEK4 (human),97.2%
same,residual activity,PAK6 (human),112%
same,residual activity,PIM2 (human),102%
same,residual activity,PLK2 (human),105%
same,residual activity,PRKCI (human),99.1%
same,residual activity,RAF1 (human),97.2%
same,residual activity,RIPK2 (human),90.5%
same,residual activity,ROS1 (human),85%
same,residual activity,RPS6KB1 (human),92.6%
same,residual activity,SRPK1 (human),108%
same,residual activity,STK10 (human),97.7%
same,residual activity,TAOK3 (human),106%
same,residual activity,TSSK1B (human),103%
CC[n+]1c(/C=C/N(C)c2ccccc2)n(-c2ccccc2)c2ccc(-c3nc4ccccc4s3)cc21,residual activity,ABL1 (human),96.7%
same,residual activity,AURKC (human),91.3%
same,residual activity,BLK (human),99.1%
same,residual activity,BMX (human),108%
same,residual activity,BTK (human),91.6%
same,residual activity,CDK1 CCNB1 (human),105%
same,residual activity,CDK3 CCNE1 (human),92.2%
same,residual activity,CDK7 CCNH MNAT1 (human),97.8%
same,residual activity,CSNK1G2 (human),101%
same,residual activity,CSNK1G3 (human),92.4%
same,residual activity,DMPK (human),93.9%
same,residual activity,DYRK1A (human),96.7%
same,residual activity,DYRK4 (human),107%
same,residual activity,EPHA1 (human),77.1%
same,residual activity,FES (human),101%
same,residual activity,FLT1 (human),94.1%
same,residual activity,GRK5 (human),109%
same,residual activity,GRK6 (human),98.9%
same,residual activity,IGF1R (human),93%
same,residual activity,INSRR (human),101%
same,residual activity,KDR (human),93.9%
same,residual activity,LRRK2 (human),95.5%
same,residual activity,LTK (human),90.7%
same,residual activity,MAP3K5 (human),100%
same,residual activity,MAP3K9 (human),98.3%
same,residual activity,MAP4K4 (human),110%
same,residual activity,MAPK8 (human),96.3%
same,residual activity,MST4 (human),93.7%
same,residual activity,NEK3 (human),102%
same,residual activity,NEK4 (human),90.5%
same,residual activity,PAK6 (human),95.5%
same,residual activity,PIM2 (human),117%
same,residual activity,PLK2 (human),93.1%
same,residual activity,PRKCI (human),90.1%
same,residual activity,RAF1 (human),96.8%
same,residual activity,RIPK2 (human),88.6%
same,residual activity,ROS1 (human),99.1%
same,residual activity,RPS6KB1 (human),96.8%
same,residual activity,SRPK1 (human),105%
same,residual activity,STK10 (human),101%
same,residual activity,TAOK3 (human),116%
same,residual activity,TSSK1B (human),102%
